Experimental findings from patent US12509424B2, “Compound and composition as PDGF receptor kinase inhibitor” (NIPPON SHINYAKU CO., LTD., priority 2019, dated 2025) are described below.

SMILES strings stand for the structures. Like-named read-outs stand apart in the source and are kept apart here.

In assay [1] the target is TEL-PDGFRβ fusion gene transfected cells (Ba/F3). Description: Suppression of proliferation of TEL-PDGFRβ fusion gene transfected Ba/F3 cells. It is filed as cell-based, human. The note with it: TEL-PDGFRβ expressing Ba/F3 cells, 72 hours, final concentration 0.1 to 10,000 nM; read-out: PDGFR β/BaF3 proliferation inhibition (IC50). From the text: 2. Preparation of Test Substance
Chain of TEL-PDGFRβ fusion gene transfected cells (Ba/F3) (P09619 33-1106 limits assumed, change not shown): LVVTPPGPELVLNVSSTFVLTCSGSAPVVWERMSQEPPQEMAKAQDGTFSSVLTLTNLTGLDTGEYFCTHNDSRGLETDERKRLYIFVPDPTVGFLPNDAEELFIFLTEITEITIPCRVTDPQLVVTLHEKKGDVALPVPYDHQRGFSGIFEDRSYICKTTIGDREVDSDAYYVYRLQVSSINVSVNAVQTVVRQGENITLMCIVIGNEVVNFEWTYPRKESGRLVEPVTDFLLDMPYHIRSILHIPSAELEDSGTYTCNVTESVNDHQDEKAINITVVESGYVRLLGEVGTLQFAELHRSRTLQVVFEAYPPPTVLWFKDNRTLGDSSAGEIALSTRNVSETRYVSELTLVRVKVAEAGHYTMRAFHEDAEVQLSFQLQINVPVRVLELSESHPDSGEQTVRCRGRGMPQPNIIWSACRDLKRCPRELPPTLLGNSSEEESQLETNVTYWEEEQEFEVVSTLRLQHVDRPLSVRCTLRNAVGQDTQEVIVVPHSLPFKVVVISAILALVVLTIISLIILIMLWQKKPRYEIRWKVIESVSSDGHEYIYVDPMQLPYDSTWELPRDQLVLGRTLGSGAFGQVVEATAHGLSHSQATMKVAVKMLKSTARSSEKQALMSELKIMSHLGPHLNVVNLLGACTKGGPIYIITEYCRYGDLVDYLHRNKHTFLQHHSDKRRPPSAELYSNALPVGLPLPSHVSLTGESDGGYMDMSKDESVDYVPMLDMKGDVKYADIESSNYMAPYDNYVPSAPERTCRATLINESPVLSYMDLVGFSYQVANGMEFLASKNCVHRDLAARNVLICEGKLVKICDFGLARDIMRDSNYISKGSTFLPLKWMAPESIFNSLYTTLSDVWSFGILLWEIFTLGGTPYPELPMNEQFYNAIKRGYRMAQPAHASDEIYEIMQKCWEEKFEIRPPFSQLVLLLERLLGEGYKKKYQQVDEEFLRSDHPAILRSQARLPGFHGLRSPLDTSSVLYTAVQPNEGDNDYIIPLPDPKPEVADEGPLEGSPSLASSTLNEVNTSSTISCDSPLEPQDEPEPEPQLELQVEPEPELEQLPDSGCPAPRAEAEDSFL
4. Analysis of Measurement Results

For assay [2], the target named is TEL-KIT fusion gene transfected cells (Ba/F3). Description: Suppression of proliferation of TEL-KIT fusion gene transfected Ba/F3 cells.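 Note: viable cells quantified via formazan from tetrazolium reduction, inhibition scaled with 0.1% DMSO control as 0% and medium-only blank as 100%, IC50 from two-parameter logistic fit.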 The note with it: read-out: KIT/BaF3 proliferation inhibition (IC50); TEL-KIT expressing Ba/F3 cells, 72 hours, final concentration 0.1 to 10,000 nM.
Chain of TEL-KIT fusion gene transfected cells (Ba/F3) (P10721 26-976 limits assumed, change not shown): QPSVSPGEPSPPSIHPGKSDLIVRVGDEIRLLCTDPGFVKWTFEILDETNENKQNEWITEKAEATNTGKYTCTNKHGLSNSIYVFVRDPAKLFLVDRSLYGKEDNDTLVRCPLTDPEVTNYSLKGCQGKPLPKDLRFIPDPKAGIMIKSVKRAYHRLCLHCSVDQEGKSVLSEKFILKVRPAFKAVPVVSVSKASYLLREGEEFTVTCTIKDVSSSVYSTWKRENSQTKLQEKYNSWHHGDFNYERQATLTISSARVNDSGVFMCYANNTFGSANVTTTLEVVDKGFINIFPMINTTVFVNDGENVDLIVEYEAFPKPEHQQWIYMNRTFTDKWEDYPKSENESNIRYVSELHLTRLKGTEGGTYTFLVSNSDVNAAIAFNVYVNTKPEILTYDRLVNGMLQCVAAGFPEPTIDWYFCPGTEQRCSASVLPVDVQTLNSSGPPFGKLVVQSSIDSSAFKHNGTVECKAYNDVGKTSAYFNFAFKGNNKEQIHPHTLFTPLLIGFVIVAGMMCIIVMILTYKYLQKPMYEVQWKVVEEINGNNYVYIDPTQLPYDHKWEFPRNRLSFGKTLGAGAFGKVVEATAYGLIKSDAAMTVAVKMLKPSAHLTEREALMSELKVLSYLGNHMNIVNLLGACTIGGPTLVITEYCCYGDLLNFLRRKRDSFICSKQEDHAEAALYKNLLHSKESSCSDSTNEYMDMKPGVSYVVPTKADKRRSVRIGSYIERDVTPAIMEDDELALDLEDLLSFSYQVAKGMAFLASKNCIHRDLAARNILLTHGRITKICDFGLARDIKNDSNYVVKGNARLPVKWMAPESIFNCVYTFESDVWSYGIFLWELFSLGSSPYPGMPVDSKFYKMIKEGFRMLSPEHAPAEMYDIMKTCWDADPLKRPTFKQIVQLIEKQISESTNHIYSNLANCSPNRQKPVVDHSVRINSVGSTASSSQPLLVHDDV
Excerpt: Fabrication of TEL-PDGFRβ and TEL-KIT Fusion Gene Transfected Cells
Subsequently, the vectors for gene transfection were introduced using a transfection reagent (FuGENE6, Promega Corporation) into packaging cells derived from a human fetal kidney cell line, PLAT-E, in the logarithmic growth phase. Since the culture supernatant of PLAT-E after the gene transfection contained virus particles for gene transfection, it was collected and used as a medium for gene transfection. The medium for gene transfection was added to a plate coated with RetroNectin and incubated, and the virus particles were allowed to adhere to the plate. Thereafter, the mouse pro-B cell line Ba/F3 in the logarithmic growth phase was seeded onto the plate and infected with the virus to fabricate cells that proliferate in a PDGFRβ or KIT dependent manner.
The test substance was prepared with dimethyl sulfoxide (DMSO) to 10 mM and diluted with DMSO so as to reach a concentration of 0.0001 to 3 mM. Furthermore, it was diluted by 100 times with distilled water.
Measurement of Suppression Action Against Proliferation of TEL-PDGFRβ or TEL-KIT Expressing Cells
The day after TEL-PDGFRβ and TEL-KIT expressing cells were seeded onto 96 well plates, the prepared test substance solution was added thereto with a final concentration being 0.1 to 10,000 nM. After 72 hours, the viable cell count was measured using the amount of formazan generated from the reduction of a tetrazolium salt compound by the mitochondrial dehydrogenase of viable cells as an indicator.
Based on the amount of formazan in each condition, the suppression rate against cell proliferation was calculated when the amounts of formazan in the negative control (0.1% DMSO solution) and Blank (medium only) were defined as 0% and 100%, respectively. Subsequently, a nonlinear regression analysis with a two parameter logistic model for the log dose and suppression rate against cell proliferation was carried out using the SAS system (SAS Institute Inc.) to estimate the IC50 value.
For assay [3], the system named is pulmonary arterial smooth muscle cells. Description: Suppression of proliferation of pulmonary arterial smooth muscle cells (PDGF-BB stimulation, BrdU). It is filed as cell-based. The note with it: PASMC, read-out: Human normal PASMC proliferation suppression (PDGF stimulation_IC50). In outline:
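Healthy human pulmonary arterial smooth muscle cells, serum-starved a day in 0.1% FBS medium, were treated with compound at final 3 to 10,000 nM plus human PDGF-BB (final 10 ng/mL) and BrdU. After 1 day of culture, BrdU uptake was measured with an anti-BrdU antibody.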

The target in the next assay is PDGFR-β (Homo sapiens (Human), UniProt P09619). Description: PDGFR-β tyrosine kinase inhibitory action (HTRF KinEASE-TK). The assay is classed as biochemical. The note with it: PDGFR-β enzyme 1 ng/μL, 30° C. for 30 minutes; read-out: PDGF-β IC50. In outline:
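Recombinant PDGFR-β at 1 ng/μL final with TK substrate-3-biotin in a substrate solution containing 0.6 μM ATP; buffer 50 mM HEPES pH 7.0, 5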

Where [4] appears, read: human PDGF-BB 10 ng/mL, BrdU uptake, final concentration 3 to 10,000 nM.
[5] abbreviates: 24 h, healthy human derived pulmonary arterial smooth muscle cells, human PDGF-BB 10 ng/mL stimulation, BrdU uptake after 1 day, test substance final concentration 3 to 10,000 nM.

Chain of PDGFR-β (P09619 33-1106): as the sequence (P09619 33-1106 limits assumed, change not shown) above

`Cc1ccc(C(=O)N[C@H]2CCCC[C@@H]2O)cc1NC(=O)c1cncc(OCC2CC2)c1` [Example 24, 5-(cyclopropylmethoxy)-N-(5-{[(1S,2S)-2-hydroxycyclohexyl]carbamoyl}-2-methylphenyl)pyridine-3-carboxamide]: the IC50 in assay [1] is 0.011 µM; in assay [2], 1.2 µM; in assay [3] (setting [4]), 0.11 µM; at PDGFR-β, 0.064 µM.
Turning to `Cc1ccc(C(=O)N[C@H]2CCCC[C@@H]2O)cc1NC(=O)c1cnc(NC2CC(F)(F)C2)s1` [Example 25, 2-[(3,3-difluorocyclobutyl)amino]-N-(5-{[(1S,2S)-2-hydroxycyclohexyl]carbamoyl}-2-methylphenyl)-1,3-thiazole-5-carboxamide], the IC50 in assay [1] was 0.05 µM; in assay [2] it was > 10 µM; in assay [3] (setting [4]) it was 0.23 µM; on PDGFR-β, 0.039 µM.
`Cc1ccc(C(=O)N[C@H]2CCCC[C@@H]2O)cc1NC(=O)c1cnc(NCCC2CC2)s1` [Example 26, 2-[(2-cyclopropylethyl)amino]-N-(5-{[(1S,2S)-2-hydroxycyclohexyl]carbamoyl}-2-methylphenyl)-1,3-thiazole-5-carboxamide]: the IC50 in assay [1] was 0.0093 µM; in assay [2] it was 0.46 µM; in assay [3] (setting [4]), 0.025 µM; at PDGFR-β, 0.0046 µM.
In the case of `Cc1ccc(C(=O)N[C@H]2CCCC[C@@H]2O)cc1NC(=O)c1cnc(NC(C)C)s1` [Example 27, N-(5-{[(1S,2S)-2-hydroxycyclohexyl]carbamoyl}-2-methylphenyl)-2-[(propan-2-yl)amino]-1,3-thiazole-5-carboxamide], the IC50 in assay [1] stood at 0.0087 µM; in assay [2] it was 1 µM; in assay [3] (setting [4]), 0.07 µM; at PDGFR-β, 0.0083 µM.
Consider `Cc1ccc(C(=O)N[C@H]2CCCC[C@@H]2O)cc1NC(=O)c1cncc(OC2CCC(F)(F)CC2)c1` [Example 28, 5-[(4,4-difluorocyclohexyl)oxy]-N-(5-{[(1S,2S)-2-hydroxycyclohexyl]carbamoyl}-2-methylphenyl)pyridine-3-carboxamide], for which the IC50 in assay [1] was determined as 0.05 µM; in assay [2], 5.8 µM; in assay [3] (setting [4]), 0.28 µM; at PDGFR-β it was 0.17 µM.
For the compound `Cc1ccc(C(=O)N[C@H]2CCCC[C@@H]2O)cc1NC(=O)c1cncc(-c2ccccc2F)c1` [Example 29, 5-(2-fluorophenyl)-N-(5-{[(1S,2S)-2-hydroxycyclohexyl]carbamoyl}-2-methylphenyl)pyridine-3-carboxamide], the IC50 in assay [1] worked out at 0.0075 µM; in assay [2], 0.29 µM; in assay [3] (setting [5]), 0.13 µM; at PDGFR-β it was 0.035 µM.
On to `Cc1ccc(C(=O)N[C@H]2CCCC[C@@H]2O)cc1NC(=O)c1cncc(-c2cccc(F)c2F)c1` [Example 30, 5-(2,3-difluorophenyl)-N-(5-{[(1S,2S)-2-hydroxycyclohexyl]carbamoyl}-2-methylphenyl)pyridine-3-carboxamide], for which the IC50 in assay [1] came out at 0.022 µM; in assay [2] it was 1.3 µM; in assay [3] (setting [5]), 0.052 µM; on PDGFR-β, 0.044 µM.
As to `Cc1ccc(C(=O)N[C@H]2CCCC[C@@H]2O)cc1NC(=O)c1cncc(-c2ccc(F)cc2F)c1` [Example 31, 5-(2,4-difluorophenyl)-N-(5-{[(1S,2S)-2-hydroxycyclohexyl]carbamoyl}-2-methylphenyl)pyridine-3-carboxamide], the IC50 in assay [1] is 0.008 µM; in assay [2], 1 µM; in assay [3] (setting [5]), 0.1 µM; at PDGFR-β it was 0.073 µM.
In the case of `Cc1ccc(C(=O)N[C@H]2CCCC[C@@H]2O)cc1NC(=O)c1cncc(-c2cc(F)cc(F)c2)c1` [Example 32, 5-(3,5-difluorophenyl)-N-(5-{[(1S,2S)-2-hydroxycyclohexyl]carbamoyl}-2-methylphenyl)pyridine-3-carboxamide], the IC50 in assay [1] worked out at 0.017 µM; in assay [2], 0.92 µM; in assay [3] (setting [5]), 0.19 µM; on PDGFR-β, 0.047 µM.
As for `COc1ccc(-c2cncc(C(=O)Nc3cc(C(=O)N[C@H]4CCCC[C@@H]4O)ccc3C)c2)c(F)c1` [Example 33, 5-(2-fluoro-4-methoxyphenyl)-N-(5-{[(1S,2S)-2-hydroxycyclohexyl]carbamoyl}-2-methylphenyl)pyridine-3-carboxamide], the IC50 in assay [1] turned out to be 0.08 µM; in assay [2], 0.88 µM; in assay [3] (setting [5]), 0.067 µM; at PDGFR-β it was 0.019 µM.
With `Cc1ccc(C(=O)N[C@H]2CCCC[C@@H]2O)cc1NC(=O)c1cncc(-c2cccc(OC(F)(F)F)c2)c1` [Example 34, N-(5-{[(1S,2S)-2-hydroxycyclohexyl]carbamoyl}-2-methylphenyl)-5-[3-(trifluoromethoxy)phenyl]pyridine-3-carboxamide], the IC50 in assay [1] came out at 0.008 µM; in assay [2] it was 0.54 µM; in assay [3] (setting [5]), 0.13 µM; on PDGFR-β it was 0.019 µM.
Regarding `Cc1ccc(C(=O)N[C@H]2CCCC[C@@H]2O)cc1NC(=O)c1cncc(-c2ccccc2OC(F)(F)F)c1` [Example 35, N-(5-{[(1S,2S)-2-hydroxycyclohexyl]carbamoyl}-2-methylphenyl)-5-[2-(trifluoromethoxy)phenyl]pyridine-3-carboxamide], the IC50 stood at 0.017 µM in assay [1], 2.2 µM in assay [2], 0.32 µM in assay [3] (setting [5]) and 0.16 µM at PDGFR-β.
Regarding `Cc1ccc(C(=O)N[C@H]2CCCC[C@@H]2O)cc1NC(=O)c1cncc(-c2ccc(C(F)(F)F)cc2F)c1` [Example 36, 5-[2-fluoro-4-(trifluoromethyl)phenyl]-N-(5-{[(1S,2S)-2-hydroxycyclohexyl]carbamoyl}-2-methylphenyl)pyridine-3-carboxamide], the IC50 in assay [1] worked out at 0.025 µM; in assay [2], 3.5 µM; in assay [3] (setting [5]), 0.092 µM; at PDGFR-β, 0.13 µM.
On to `Cc1ccc(C(=O)N[C@H]2CCCC[C@@H]2O)cc1NC(=O)c1cncc(-c2c(F)cccc2F)c1` [Example 37, 5-(2,6-difluorophenyl)-N-(5-{[(1S,2S)-2-hydroxycyclohexyl]carbamoyl}-2-methylphenyl)pyridine-3-carboxamide], for which the IC50 is 0.0051 µM in assay [1], 0.47 µM in assay [2], 0.046 µM in assay [3] (setting [5]) and 0.033 µM at PDGFR-β.
Take `Cc1ccc(C(=O)N[C@H]2CCCC[C@@H]2O)cc1NC(=O)c1cnc(NC(C)(C)C)s1` [Example 38, 2-(tert-butylamino)-N-(5-{[(1S,2S)-2-hydroxycyclohexyl]carbamoyl}-2-methylphenyl)-1,3-thiazole-5-carboxamide]: the IC50 came out at 0.0073 µM in assay [1], 1.2 µM in assay [2], 0.21 µM in assay [3] (setting [5]) and 0.079 µM on PDGFR-β.
For `Cc1ccc(C(=O)N[C@H]2CCCC[C@@H]2O)cc1NC(=O)c1cnc(NC2(C)CC2)s1` [Example 39, N-(5-{[(1S,2S)-2-hydroxycyclohexyl]carbamoyl}-2-methylphenyl)-2-[(1-methylcyclopropyl)amino]-1,3-thiazole-5-carboxamide] the same measures were 0.013 µM, 1 µM, 0.15 µM and 0.1 µM.
As to `Cc1ccc(C(=O)N[C@H]2CCCC[C@@H]2O)cc1NC(=O)c1cnc(NC2(C)CCC2)s1` [Example 40, N-(5-{[(1S,2S)-2-hydroxycyclohexyl]carbamoyl}-2-methylphenyl)-2-[(1-methylcyclobutyl)amino]-1,3-thiazole-5-carboxamide], the IC50 in assay [1] was determined as 0.0046 µM; in assay [2], 1.2 µM; in assay [3] (setting [5]) it was 0.075 µM; on PDGFR-β, 0.043 µM.
Regarding `Cc1ccc(C(=O)N[C@H]2CCCC[C@@H]2O)cc1NC(=O)c1cnc(NCC(C)(C)C)s1` [Example 41, 2-[(2,2-dimethylpropyl)amino]-N-(5-{[(1S,2S)-2-hydroxycyclohexyl]carbamoyl}-2-methylphenyl)-1,3-thiazole-5-carboxamide], the IC50 in assay [1] came to 0.035 µM; in assay [2], 2.1 µM; in assay [3] (setting [5]), 0.21 µM; at PDGFR-β it was 0.13 µM.
Take `Cc1ccc(C(=O)N[C@H]2CCCC[C@@H]2O)cc1NC(=O)c1cncc(-c2cc(F)c(F)c(F)c2)c1` [Example 42, N-(5-{[(1S,2S)-2-hydroxycyclohexyl]carbamoyl}-2-methylphenyl)-5-(3,4,5-trifluorophenyl)pyridine-3-carboxamide]: the IC50 amounted to 0.041 µM in assay [1], 7.9 µM in assay [2], 0.095 µM in assay [3] (setting [5]) and 0.23 µM at PDGFR-β.
For `Cc1ccc(C(=O)N[C@H]2CCCC[C@@H]2O)cc1NC(=O)c1cncc(-c2ccc(C3CC3)cc2)c1` [Example 43, 5-(4-cyclopropylphenyl)-N-(5-{[(1S,2S)-2-hydroxycyclohexyl]carbamoyl}-2-methylphenyl)pyridine-3-carboxamide], the IC50 in assay [1] was found to be 0.017 µM; in assay [2], 0.64 µM; in assay [3] (setting [5]) it was 0.072 µM; on PDGFR-β, 0.023 µM.
